Test results: US7754687B2, “Methods of inhibiting viral infection” (Mount Sinai School of Medicine, priority 2005, dated 2010)
Where two headings read alike, the source gives them in different places. No end group written: not given here.

Legend:
HDAC = test: Effect of sodium butyrate on ProTα activity in macrophages carrying integrated HIV-1; type: cell-based; conditions: data not presented
From the text: Moreover, both IkBα and ProTα can bind to HDAC and form intracellular complexes with DNA (51, 52). Therefore investigating the functions of these transcriptional factors and studying the competitive binding of HDAC to IkB and/or ProTα and chromatin immunoprecipitation studies may help to further reveal how ProTα inhibits HIV-1 transcription in primary macrophages.

HIV-1VSV = type: cell-based
HIV-1JRFL [1] = type: cell-based; conditions: Hos CD4+/CCR5+ cells; data not presented
IkBα mRNA = IkBα mRNA by real time PCR in macrophages carrying integrated HIV; type: cell-based; conditions: data not presented
Protocol: (§1) RNA was isolated from macrophages infected with HIVVSV for 72 hr and treated with medium alone or ProTα 24 hr post treatment using Absolutely RNA kit (Stratagene). Real time PCR was done at Mount Sinai Medical Center Core Facility using following primers: […]
for IkB sense-[…] anisense-[…].
(§2) Each assay was performed in triplicate. Quantification of each PCR product was expressed relative to -actin.

STAT1 [2] = test: STAT1 phosphorylation western blot, primary macrophages; type: cell-based; conditions: 15 min, ProTα 1 μg/mL or 10% conditioned medium
Protocol: (§3) Whole cell extract from macrophages and Hela cells treated with 10% cell conditioned medium from CD8+ cells, ProTα or medium was prepared by adding 1×SDS Sample buffer (100 ul per 6 well plate). For western blot analyses, protein samples were treated with 2.5 M DTT or 2.5% 2-mercaptoethanol and separated by SDS-Page 4-20% Tris-Glycine gradient gels (Novex-Invitrogen Calif.). Following separation by SDS-Page, the gel was blotted onto PVDF membrane (Novex-Invitrogen San-Diego, Carlsbad, Calif.). After blocking with 5% nonfat milk the membrane was incubated with 1/1000 dilution of anti P-STAT-1 (Tyr701) (Cell Signaling Technology) for 24 hr at 4° C. in PBS. The membrane was washed in PBS with 0.05% Tween 20 and treated with 1/2000 diluted anti-rabbit antibodies labeled with horseradish […] (Amersham pharmacia UK). The membrane was washed in PBS with 0.05% tween 20 and Western blot chemiluminescence reagent was added.
(§4) To establish whether ProTα also induces STAT1 activation in primary macrophages and HeLa-CD4 cells, such cells were briefly (15 min) incubated with ProTα protein at 1 μg/mL or 10% cell conditioned medium after incubation for 2 hr in serum free medium to reduce baseline phosphorylation. A western blot of the electrophoresed total lysate of treated and untreated cells was probed with an antibody specific for STAT1 phosphorylated at tyrosine 701 (FIG. 8).

type one and/or two IFNs = test: Induction of type one and/or two IFN mRNA in primary macrophages; conditions: 24 hr post treatment, data not presented
HIV-1JRFL [3] = type: cell-based; conditions: HeLa CD4+/CCR5+ cells
HIV-1JRFL [4] = type: cell-based; conditions: primary macrophages
CMV promoter = test: Luciferase reporter under CMV promoter (VVCW/LBE) in macrophages; type: cell-based; conditions: 200 ng/ml at 48-72 hr post infection; 24 hr post treatment
From the text: (§5) Inhibition of HIV-1 Gene Transcription by ProTα is not Selective for the HIV-1 LTR Promoter. To determine whether the effect of ProTα on HIV-1 gene transcription is specific for the LTR promoter, the present inventors used two other HIV derived lentiviral vectors carrying luciferase reporter genes under control of PGK (phosphoglycerate kinase-VVPW/LBE) or CMV (cytomegalovirus-VVCW/LBE) promoters (kindly provided by Dr. L. Gusella). Macrophages were infected with HIV-1VSV carrying the luciferase gene, under the control of LTR, PGK or CMV promoters. At 48-72 hr post infection when viral integration is completed, ProTα at 200 ng/ml was introduced.

[5] = system: HIV-1 LTR controlled luciferase reporter gene mRNA; test: Real time RT-PCR of luciferase reporter gene mRNA in HIV-1VSV infected macrophages; type: cell-based; conditions: 200 ng/ml for 24 hr; 72 hr post infection; vs control medium
Protocol: as §1
for Luciferase reporter gene: sense-[…] antisense-[…].
as §2

IkBα protein = IkBα protein level in the nucleus of macrophages; type: cell-based; conditions: 1 hr post treatment, data not presented
mC2,C3-Ba-L = test: Replication of LTR-mutated mC2,C3-Ba-L in primary macrophages, p24; type: cell-based, HIV-1; conditions: 200 ng/ml, p24 days 6-10, 3 donors
[6] = system: CCR5 tropic HIV-1 primary isolates; test: Replication of CCR5 HIV-1 primary isolate in primary macrophages, p24; type: cell-based; conditions: 200 ng/ml, p24 day 15
STAT2 = STAT2 phosphorylation in treated macrophages; conditions: supernatant 10% by volume, data not presented
[7] = system: HIV-1 lab isolates (HIV-1BaL and HIV-1IIIB) or HIV-1 primary isolates; test: HIV-1 replication in primary CD4+ cells (lab and primary isolates); type: cell-based; conditions: primary CD4+ cells; data not presented
[8] = system: dual tropic HIV-1 primary isolate; test: Replication of dual tropic HIV-1 primary isolate in primary macrophages, p24; type: cell-based; conditions: 200 ng/ml, p24 day 15
PGK promoter = test: Luciferase reporter under PGK promoter (VVPW/LBE) in macrophages; type: cell-based; conditions: 200 ng/ml at 48-72 hr post infection; 24 hr post treatment
From the text: as §5

STAT1 [9] = test: STAT1 phosphorylation western blot, HeLa-CD4 cells; type: cell-based; conditions: 15 min, ProTα 1 μg/mL or 10% conditioned medium
Protocol: as §3, §4

HIV-1BaL = HIV-1BaL replication in primary macrophages, p24 antigen ELISA; type: cell-based
HIVVSV = type: cell-based, HIV-1; conditions: 200 ng/ml

CCCC(=O)[O-].[Na+] [sodium butyrate]
reduction in ProTα activity (HDAC): 70-80%

prothymosin alpha [ProTα]
effect on HIV-1 gene expression (luciferase) (HIV-1VSV): inhibit HIV-1 gene expression | expression of luciferase reporter gene from LTR promoter (HIV-1VSV): inhibited expression | reduction of HIV-1 gene expression (HIV-1VSV): 80% | anti-HIV-1JRFL activity (HIV-1JRFL [1]): did not, however, exhibit anti-HIV-1JRFL activity | induction of IkBα mRNA (IkBα mRNA): 10 fold | phosphorylation state of STAT1 (Tyr701) (STAT1 [2]): no effect | induction of type one and/or two IFN mRNA (type one and/or two IFNs): no induction | anti-HIV-1JRFL activity (HIV-1JRFL [3]): did not, however, exhibit anti-HIV-1JRFL activity | inhibition of the luciferase reporter gene of HIV-1JRFL (HIV-1JRFL [4]; dose response): dose dependent inhibition | concentration at which anti-HIV-1 activity was exhibited (as low as) (HIV-1JRFL [4]; luciferase 72 hr post infection): 20 ng/mL | expression of luciferase reporter gene from CMV promoter (CMV promoter): inhibited expression | suppression of LTR controlled luciferase reporter gene mRNA levels [5]: 80% | level of IkBα protein in the nucleus (IkBα protein): increased substantially | suppression of mutated (LTR) virus replication (mC2,C3-Ba-L): 60-80% | replication of CCR5 HIV-1 primary isolate [6]: inhibited replication | STAT 2 phosphorylation (STAT2): did not induce STAT 2 phosphorylation | suppression of replication [7]: varying from 30-40% suppression to no suppression | replication of dual tropic HIV-1 primary isolate [8]: inhibited replication | expression of luciferase reporter gene from PGK promoter (PGK promoter): inhibited expression | phosphorylation state of STAT1 (Tyr701) (STAT1 [9]): no effect | reduction of viral p24 antigen (HIV-1BaL; 2 ng/mL rProTα, primary macrophages): greater than 80% | inhibition of wild type (LTR) virus (HIV-1BaL; primary macrophages, 200 ng/ml, p24 days 6-10, 3 donors): 90-95% | suppression of HIV-1BaL replication as measured by HIV-1 p24 antigen (HIV-1BaL; primary macrophages, dose response): dosage dependent suppression | reduction of expression of the reporter gene luciferase (HIVVSV; DCs treated 2 hr post infection): 90% | inhibition of integrated proviral HIV-1 (HIVVSV; DCs treated 72 hr post infection): 65-75%

O=C(O)C(=O)CC(=O)c1cccn1Cc1ccc(F)cc1 [L-731 988, reference compound]
effect on HIV-1 gene expression (luciferase) (HIV-1VSV): no effect | suppression of virus replication by integrase inhibitor (HIV-1BaL; added at 2 hr post infection, replication competent viruses): did not completely suppress virus replication

thymosin alpha 1 (Ac-SDAAVDTSSEITTKDLKEKKEVVEEAEN; UniProt P06454 2-29, looked up, fragment) [Tα1, chemically synthesized peptide homologous to the first 28 amino acids of ProTα, reference compound]
activity against the HIVJRFL expressing luciferase reporter gene (HIV-1JRFL [4]; up to 1 μg/mL): no activity

Cc1cn([C@H]2C[C@H](N=[N+]=[N-])[C@@H](CO)O2)c(=O)[nH]c1=O [AZT, azidothymidine, reference compound]
effect on HIV-1 gene expression (luciferase) (HIV-1VSV): no effect
